Experimental data from BindingDB's records for doi:10.1016/j.bmc.2007.07.054 (Yeungnam University, 2007).

Columns and labels:
[1] = biological target: T1, Group 10 secretory phospholipase A2 (Homo sapiens, UniProt O15496); assay: Inhibition of human cloned sPLA2-10 expressed in HEK293 cells
T1 sequence (O15496 whole entry): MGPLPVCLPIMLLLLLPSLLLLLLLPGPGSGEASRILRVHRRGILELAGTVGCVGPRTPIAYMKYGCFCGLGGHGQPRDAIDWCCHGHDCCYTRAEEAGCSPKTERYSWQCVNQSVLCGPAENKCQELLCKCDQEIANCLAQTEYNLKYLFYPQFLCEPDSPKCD

[2] = biological target: Phospholipase A2 (Rattus norvegicus, UniProt P04055); assay: Inhibition of rat cloned sPLA2-1B expressed in HEK293 cells
[3] = biological target: T2, Cytosolic phospholipase A2 (Homo sapiens, UniProt P47712); assay: Inhibition of human cloned cPLA2 expressed in HEK293 cells
T2 sequence (P47712 whole entry): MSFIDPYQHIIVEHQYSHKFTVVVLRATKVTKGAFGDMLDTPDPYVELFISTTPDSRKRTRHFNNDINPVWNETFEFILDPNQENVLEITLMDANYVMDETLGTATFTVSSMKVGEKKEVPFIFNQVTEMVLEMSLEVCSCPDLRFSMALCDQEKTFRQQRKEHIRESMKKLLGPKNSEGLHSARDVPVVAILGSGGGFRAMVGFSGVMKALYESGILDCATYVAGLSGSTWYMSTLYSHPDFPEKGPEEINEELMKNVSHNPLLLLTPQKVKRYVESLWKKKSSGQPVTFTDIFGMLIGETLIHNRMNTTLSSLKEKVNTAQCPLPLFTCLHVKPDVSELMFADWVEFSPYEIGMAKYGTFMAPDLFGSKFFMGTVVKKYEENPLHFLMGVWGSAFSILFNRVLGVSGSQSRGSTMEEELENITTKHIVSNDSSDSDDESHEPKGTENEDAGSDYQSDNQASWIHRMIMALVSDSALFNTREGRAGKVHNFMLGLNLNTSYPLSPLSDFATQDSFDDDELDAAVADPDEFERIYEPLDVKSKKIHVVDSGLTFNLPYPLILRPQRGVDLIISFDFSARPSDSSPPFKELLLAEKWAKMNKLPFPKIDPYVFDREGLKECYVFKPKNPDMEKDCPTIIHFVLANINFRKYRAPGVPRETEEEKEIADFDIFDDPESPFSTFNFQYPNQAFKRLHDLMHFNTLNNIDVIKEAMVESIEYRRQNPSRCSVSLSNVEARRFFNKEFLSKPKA

Phospholipase A2, sequence (P04055 whole entry): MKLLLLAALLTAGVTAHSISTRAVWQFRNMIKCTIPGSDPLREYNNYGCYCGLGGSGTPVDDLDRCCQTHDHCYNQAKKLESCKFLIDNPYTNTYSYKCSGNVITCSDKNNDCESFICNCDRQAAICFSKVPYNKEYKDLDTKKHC

IC50 [1] [µM] | IC50 [2] [µM] | IC50 [3] [µM] | SMILES
> 100 | > 100 | > 100 | O=c1cc(O)cc2oc(-c3ccc(O)c(-c4c(O)cc(O)c5c(=O)cc(-c6ccc(O)cc6)oc45)c3)cc(O)c1-2
> 100 | > 100 | > 100 | O=c1cc(O)cc2oc(-c3ccc(Oc4cc(-c5cc(O)c6c(=O)cc(O)cc-6o5)ccc4O)cc3)cc(O)c1-2
